Data on 19 molecules can be found in paper PMC12785511, “Integrative Profiling for BBB Permeability Using Capillary Electrochromatography, Experimental Physicochemical Parameters, and Ensemble Machine Learning” (International Journal of Molecular Sciences, 2025).

Like-named read-outs stand apart in the source and are kept apart here.

Data set [1] can be described thus: physchem. The note with it: for logD: pH 7.4.
Method: (§1) Using the Sirius T3 device, the physicochemical properties of the reference drugs were determined by automated potentiometric titrations. The compounds’ acidity was measured by determining their pKa parameters. […] The obtained psKa values were next extrapolated to the 0% content of methanol (pure ISA water) using the Yasuda–Shedlovsky extrapolation plots. The lipophilicity of the research compounds (log P parameters) was measured by the automated potentiometric method as well, based on the previously obtained compounds’ pKa values. The aqueous pH-metric titrations were carried out in the presence of n-octanol—an immiscible water partition solvent. […] The log P parameters were determined based on the differences between the apparent poKa and aqueous pKa values in three independent titrations conducted with diverse volume ratios of the aqueous and n-octanol phases. Log D7.4 values were calculated automatically by the Sirius T3 Refine software (version 2.0.0.0) based on the obtained log P and pKa values.
Data set [2] in a line: open-tubular capillary electrochromatography (CEC), permeability k′ parameter. Conditions: pH 7.4 HEPES buffer 40 mM, migration times in coated and uncoated capillary, mean ± SD of three independent experiments. It is filed as in vitro ADME.
Method: The separation HEPES buffer, POPC/PS liposomes (80:20 mol% ratio; large unilamellar vesicles type; LUV), and test samples were prepared according to the protocol described earlier [45]. […] To complete the coating procedure, the capillary was left to stand filled with the liposome solution for 15 min.
Since the reference drugs tested in this study are compounds ionized at pH 7.4, their migration times determined in the uncoated and coated capillary variants were used in the k′ permeability parameter calculations. At first, the experiments were conducted in the liposome-untreated capillary. Next, after coating the capillary with the inner liposomal layer, the migration times of analytes were evaluated once again in the coated one. […] The pH 7.4 HEPES buffer (40 mM) was used as the background electrolyte solution in all CEC experiments.
The CEC permeability k′ parameter was calculated for each reference drug based on its experimentally determined migration times in the uncoated and coated capillary variants using Equation (2) [56]:(2) k^′=tR(1/tEOF+ 1/tR^′− 1/tEOF^′)−1 where tR and tEOF are the migration times of the analyte and EOF marker in the coated capillary, respectively, and tR′ and tEOF′ are analogical migration times in the uncoated capillary.
The conditions of data set [3]: cited from earlier work.
The nature of data set [4]: Sirius T3 automated potentiometric (pH-metric) titrations, pKa.
Method: as §1
A short description of data set [5]: Sirius T3 automated potentiometric titrations with n-octanol, log P / log D. The note with it: for logP / logD: n-octanol/water; for Log D7.4: calculated based on the experimentally obtained pKa and log P data.
Method: as §1
A short description of data set [6]: physchem.
Method: as §1
Where [7] appears, read: experimental in vivo measurements from rats, data retrieved from literature.
[8] abbreviates: ionic strength adjusted (ISA) water ([…] KCl), pKa ± SD, […] ISA water or Yasuda–Shedlovsky extrapolation from methanol cosolvent, value used for regression.

The term logP denotes a log measure of how a compound divides between an organic and an aqueous phase. The logD is lipophilicity at a set pH, counting ionised and neutral species. A word on the pKa: it is the pH at which an ionisable group is half protonated. As to `O=C(O)CCCc1ccc(N(CCCl)CCCl)cc1` [chlorambucil], in data set [1], the logP is 3.71 ± 0.02 and the logD stood at 1.07. The “k′ ± SD (CEC)” value in data set [2] worked out at 0.00397 ± 0.00087. Also, in data set [3] (setting [7]), the “Log BB” value is on record as −1.70. In addition, the pKa in data set [4] stood at 4.72 ± 0.04.
Take `COc1ccc2c3c1O[C@H]1[C@@H](O)C=C[C@H]4[C@@H](C2)N(C)CC[C@@]341` [codeine]: in data set [1], the lipophilicity (logP) was 1.14 ± 0.01 and the log distribution coefficient (logD) is 0.26. For the same molecule, the “k′ ± SD (CEC)” value in data set [2] was −0.01188 ± 0.00888. Moreover, the “Log BB” value in data set [3] (rat, in vivo) is recorded as 0.55.
With `CCC1(C2=CCCCC2)C(=O)NC(=O)NC1=O` [cyclobarbital], the log distribution coefficient (logD) in data set [1] turned out to be 1.16. Moreover, in data set [2], the “k′ ± SD (CEC)” value was found to be 0.00186 ± 0.00088. In data set [3] (rat, in vivo), the “Log BB” value is listed as −0.30.
For `COc1ccc2c3c1O[C@H]1C[C@@H](O)C=C[C@@]31CCN(C)C2` [galanthamine], in data set [1], the lipophilicity (logP) was determined as 1.15 and the pH-dependent lipophilicity (logD) was 0.18. For the same molecule, in data set [3] (rat, in vivo), the “Log BB” value is on record as 0.00.
`CN(C)C(=O)C(CCN1CCC(O)(c2ccc(Cl)cc2)CC1)(c1ccccc1)c1ccccc1` [loperamide] came in with a logD in data set [1] of 3.21. Moreover, the “k′ ± SD (CEC)” value in data set [2] stood at 0.0147 ± 0.00102. Also, in data set [3] (setting [7]), the “Log BB” value was 0.70.
For the molecule `CNCCC=C1c2ccccc2CCc2ccccc21` [nortriptyline], in data set [2], the “k′ ± SD (CEC)” value is listed as −0.01133 ± 0.0021. In addition, in data set [3] (setting [7]), the “Log BB” value is 1.04. Besides, the pKa in data set [4] (setting [8]) is 10.05 ± 0.03. The molecule also registered a logP in data set [5] of 4.29 ± 0.01. Further, the logD in data set [5] (pH 7.4) amounted to 1.79.
As for `Fc1ccc([C@@H]2CCNC[C@H]2COc2ccc3c(c2)OCO3)cc1` [paroxetine], the “k′ ± SD (CEC)” value in data set [2] is on record as 0.02144 ± 0.00689. Further, in data set [3] (setting [7]), the “Log BB” value is 0.48. The pKa in data set [4] (setting [8]) was 9.76 ± 0.08. Also, the logP in data set [5] was 3.39 ± 0.04.
In turn, `CCC1(c2ccccc2)C(=O)NC(=O)NC1=O` [phenobarbital] came in with a log distribution coefficient (logD) in data set [1] of 0.98. In addition, in data set [2], the “k′ ± SD (CEC)” value is −0.01824 ± 0.00855. Also, the “Log BB” value in data set [3] (rat, in vivo) is recorded as −0.12.
As for `CNC(=O)Oc1ccc2c(c1)[C@]1(C)CCN(C)[C@@H]1N2C` [physostigmine], the “k′ ± SD (CEC)” value in data set [2] is 0.01268 ± 0.00087. The “Log BB” value in data set [3] (rat, in vivo) is given as 0.08. The molecule further had a pKa in data set [6] of 8.24 ± 0.04.
As for `CN(C)CCCN1c2ccccc2Sc2ccccc21` [promazine], the “k′ ± SD (CEC)” value in data set [2] is reported as −0.01399 ± 0.00228. In addition, the “Log BB” value in data set [3] (setting [7]) is on record as 1.23. In data set [4] (setting [8]), the pKa was 9.39. Also, the logP in data set [5] worked out at 4.54. The logD in data set [5] (pH 1) was found to be 0.83; in data set [5] (pH 1.2) it was 0.83; in data set [5] (pH 2), 0.83; in data set [5] (pH 3), 0.83; in data set [5] (pH 4), 0.84; in data set [5] (pH 5), 0.91. For the same molecule, the log distribution coefficient (logD) in data set [5] (pH 6) stood at 1.32; in data set [5] (pH 6.5) it was 1.71; in data set [5] (pH 7), 2.17; in data set [5] (pH 7.4), 2.55; in data set [5] (pH 8), 3.14; in data set [5] (pH 9), 4. In addition, the log distribution coefficient (logD) was determined as 4.45 in data set [5] (pH 10), 4.53 in data set [5] (pH 11) and 4.54 in data set [5] (pH 12).
As for `CNC(=C[N+](=O)[O-])NCCSCc1ccc(CN(C)C)o1` [ranitidine], the “k′ ± SD (CEC)” value in data set [2] is −0.00256 ± 0.00041. The “Log BB” value in data set [3] (setting [7]) is reported as −1.23. For the same molecule, in data set [4] (setting [8]), the pKa is 8.43 ± 0.01. The log partition coefficient (logP) in data set [5] stood at 0.34 ± 0.02. The molecule also had a log distribution coefficient (logD) in data set [5] (pH 7.4) of -0.75.
Molecule `CCN(C)C(=O)Oc1cccc([C@H](C)N(C)C)c1` [rivastigmine] displayed a logD in data set [1] of 0.66. The “k′ ± SD (CEC)” value in data set [2] is −0.00018 ± 0.00009.
Consider `CCCN(CCC)CCc1cccc2c1CC(=O)N2` [ropinirole], for which the “k′ ± SD (CEC)” value in data set [2] is given as −0.01252 ± 0.00126. Moreover, the pKa in data set [6] came out at 9.7 ± 0.05.
For the molecule `CC(C)(C)NCC(O)c1ccc(O)c(CO)c1` (centres unmarked) [salbutamol], in data set [2], the “k′ ± SD (CEC)” value is reported as −0.0103 ± 0.00502. Further, the “Log BB” value in data set [3] (setting [7]) is on record as −1.03. The pKa in data set [4] (setting [8]) was 9.6 ± 0.01. Further, in data set [5], the logP was 0.3 ± 0.04. For the same molecule, the “Log D7.4” value in data set [5] (pH 7.4) is −1.90.
In the case of `S=C(NC1CCCCC1)N1CCC(c2cnc[nH]2)CC1` [thioperamide], the pH-dependent lipophilicity (logD) in data set [1] was found to be 2.27. The “k′ ± SD (CEC)” value in data set [2] came out at 0.01849 ± 0.00363. Moreover, the “Log BB” value in data set [3] (setting [7]) was −0.16.
As to `O=c1n(CCCN2CCN(c3cccc(Cl)c3)CC2)nc2ccccn12` [trazodone], the “k′ ± SD (CEC)” value in data set [2] was −0.0108 ± 0.00292. Also, the “Log BB” value in data set [3] (setting [7]) is 0.30. Also, the pKa in data set [4] (setting [8]) was 6.83 ± 0.04. This molecule also showed a logP in data set [5] of 2.98. In addition, the logD in data set [5] (pH 7.4) was determined as 2.88.
Turning to `Cc1ccc(/C(=C\CN2CCCC2)c2ccccn2)cc1` [triprolidine], the “k′ ± SD (CEC)” value in data set [2] came to 0.01006 ± 0.00233. Besides, the “Log BB” value in data set [3] (setting [7]) is on record as 0.78. Also, the pKa in data set [4] (setting [8]) is 9.39 ± 0.06. For the same molecule, the logP in data set [5] came to 3.87 ± 0.01. In addition, in data set [5] (pH 7.4), the “Log D7.4” value was 1.88.
In the case of `COc1ccc(C(CN(C)C)C2(O)CCCCC2)cc1` (centres unmarked) [venlafaxine], the “k′ ± SD (CEC)” value in data set [2] is on record as −0.01411 ± 0.00205. For the same molecule, the “Log BB” value in data set [3] (setting [7]) was 0.48. Also, the pKa in data set [4] (setting [8]) was 9.67 ± 0.02. The molecule further returned a logP in data set [5] of 2.97. The molecule further displayed a logD in data set [5] (pH 7.4) of 0.7.
Consider `CN(C)CCc1c[nH]c2ccc(C[C@H]3COC(=O)N3)cc12` [zolmitriptan], for which the “k′ ± SD (CEC)” value in data set [2] is −0.00882 ± 0.00356. For the same molecule, the “Log BB” value in data set [3] (setting [7]) is −1.40. Moreover, the pKa in data set [4] (setting [8]) was 9.6 ± 0.05. Moreover, in data set [5], the lipophilicity (logP) amounted to 1.19 ± 0.01. Further, the logD in data set [5] (pH 7.4) is -1.01.
